SMILES strings stand for the structures.

This experiment deals with Acetylcholine receptor subunit alpha (Mus musculus) (UniProt P04756). The experiment can be described thus: muscle nAChR inhibitors, cell-based, Mus musculus, Xenopus oocytes (AID 743368). Particulars: two-electrode voltage clamp, ACh-evoked current.
Sequence of Acetylcholine receptor subunit alpha (Mus musculus) (P04756 whole entry, looked up): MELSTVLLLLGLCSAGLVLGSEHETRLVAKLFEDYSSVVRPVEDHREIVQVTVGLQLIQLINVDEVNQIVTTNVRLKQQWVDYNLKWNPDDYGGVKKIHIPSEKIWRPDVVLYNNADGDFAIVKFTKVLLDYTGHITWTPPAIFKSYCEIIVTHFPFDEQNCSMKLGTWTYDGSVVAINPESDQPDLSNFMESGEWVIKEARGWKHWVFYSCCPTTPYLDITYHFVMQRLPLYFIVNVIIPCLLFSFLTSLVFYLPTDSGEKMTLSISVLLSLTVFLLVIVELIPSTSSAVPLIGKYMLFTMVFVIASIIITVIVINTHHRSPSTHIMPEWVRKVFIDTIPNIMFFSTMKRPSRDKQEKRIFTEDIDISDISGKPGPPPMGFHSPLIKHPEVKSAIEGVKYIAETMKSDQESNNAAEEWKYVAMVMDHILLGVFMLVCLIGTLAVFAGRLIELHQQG
Take `COn1c(Br)c2c3c(cccc31)[C@H]1C[C@@H](C)CN(C)[C@@H]1C2`: the IC50 is 3.7 µM. For `COc1cc(CCN)c2c(c1OC)SSSSS2`, the IC50 was 8.7 µM. Consider `CC/C=C/[C@@H]1CC[C@]2(C[C@H]3CC[C@H]4[C@@H](C(=O)OC(CC)CCCCCCCCCCCCC[C@@H]5O[C@](O)(CCN)[C@H](O)N(CCCN)C5=O)[C@@]5(CCC[C@H](C)O5)NC(=[N+]34)N2)O1` (stereo partly drawn), for which the half-maximal inhibitory concentration (IC50) was 4.1 µM.

These data come from PubChem BioAssay AID743368.
